Test results: US12343326B2, “Psychoactive medicines and their use for treating psychiatric and neurological conditions and disorders” (Transcend Therapeutics, Inc., priority 2021, dated 2025)
Read-outs that look alike come from different tables or passages of the source. Marks after values point to notes of the source that are not given here.

Assays:
168 GPCRs = 168 GPCRs (Homo sapiens, UniProt P43115); assay: β-arrestin based GPCR screen (PathHunter / GPCRmax), agonist mode; assay type: cell-based; design: host or cells: PathHunter cell lines
Sequence of 168 GPCRs (P43115 whole entry): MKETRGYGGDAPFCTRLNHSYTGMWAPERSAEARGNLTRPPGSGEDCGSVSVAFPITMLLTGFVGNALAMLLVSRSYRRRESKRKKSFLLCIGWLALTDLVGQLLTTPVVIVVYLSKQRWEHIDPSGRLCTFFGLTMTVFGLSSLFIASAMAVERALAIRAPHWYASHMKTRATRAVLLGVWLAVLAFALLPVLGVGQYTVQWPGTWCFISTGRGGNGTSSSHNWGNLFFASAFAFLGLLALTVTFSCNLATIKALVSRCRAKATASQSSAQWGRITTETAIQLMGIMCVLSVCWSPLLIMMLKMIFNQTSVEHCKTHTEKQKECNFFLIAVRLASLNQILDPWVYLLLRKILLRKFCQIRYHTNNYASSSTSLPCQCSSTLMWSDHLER
Experimental: For agonist determination, cells were incubated with sample to induce response. […] Vehicle concentration was 1%.

[1] = test system: patients with a primary diagnosis of PTSD; assay: Case series with long-term follow-up (Example 5): CGI-I, durability, safety; assay type: in vivo, human
From the text: The patients were not given structured psychotherapy in conjunction with methylone treatment, which differs from recent studies of MDMA that emphasize the importance of a manualized psychedelic-assisted psychotherapy model.
No protected health information was disclosed, and no consent was obtained from patients for use of their archival data. Case narratives were systematically compiled from data collected as part of routine clinical work. Diagnoses were confirmed by an experienced clinician using semi-structured interviews. Baseline symptom severity was evaluated using the Clinical Global Impressions Scale-Severity (CGI-S). Symptom improvement was evaluated using the Clinical Global Impressions Scale-Improvement (CGI-I) following dosing. […] Because these case narratives were examined retrospectively from routine clinical care records, and not gathered prospectively in a research study, more specific validated rating scales for assessing PTSD symptoms were not available. Additionally, follow-up varied, with the length of follow-up ranging from one week (Case 2) to 15 years (Case 16).
Dosing summary: Methylone was administered orally. Other medications were not changed during methylone treatment. […] In several cases, treatment was continued, and, in some cases, the dose was further escalated in later sessions (see Table 5). Booster doses were included for 19 patients in one or more of the sessions. Starting doses were between 100 and 270 mg, and these as well as booster doses were selected based on clinical judgement.

[2] = cited from earlier work
[3] = cited from earlier work; remark: listed apart in the source
[4] = test system: patients with PTSD or MDD; assay: Methylone case series, Cohort 2: CGI-S/CGI-I efficacy and safety; assay type: in vivo, human
Experimental: CGI-S scale was also evaluated in a subset of patients from Cohort 2 post-treatment. Cohort 2 was evaluated for any observed or reported safety events following a single dosing session. Clinical Global Improvement Scale
Clinical Global Impressions (CGI) scale includes 2 components: CGI-S (“severity”) and CGI-I (“improvement”).
Cohort 2 is composed of 28 patients with PTSD or MDD treated in an outpatient setting.
Only sessions that included methylone dosing were counted as dosing sessions.
Single sessions occurred for 8 of the 28 cases with no booster in two of these cases. In the remainder of the cases, multiple sessions occurred, and booster doses were used in all or some of the remaining patients ([…]) with multiple booster doses used in some or all of the sessions in 15 patients.

[5] = across oral doses of 50 mg to 200 mg
[6] = Cohort 2, N = 28, highest observed

For `CNC(C)C(=O)c1ccc2c(c1)OCO2` (stereo not shown) [methylone, 3,4-methylenedioxy-N-methylcathinone], the activity at 10 µM (168 GPCRs; PTGER3, Agonist mode, 10 uM) was 1.9%, the activity at 1 µM (168 GPCRs; PTGER3, Agonist, 1 uM) was 4.5% and the “discontinuation due to adverse events” value ([1]; 21 patients) was “no patients discontinued treatment due to adverse events”. For the same molecule, the “total adverse events noted” value ([1]; in three of the 21 patients) was “four”, the “patients achieving CGI-I of 1 (very much improved)” value ([1]; of 21 patients) was 9 patients and the “patients achieving CGI-I of 2 (much improved)” value ([1]; of 21 patients) was 8 patients. The half-life [2, 5] was 6 to 7 h, the “time to reach maximum concentrations (Tmax)” value [2, 5] was 1 to 2 h and the “AUC10 hr, geometric mean” value ([2]; oral 50 mg, N = 3) was 725 ng·h/mL. For the same molecule, the “Tmax, median” value ([2]; oral 50 mg, N = 3) was 1.5 h, the “Cmax, geometric mean” value ([2]; oral 100 mg, N = 6) was 283.9 ng/mL and the “Half-life, geometric mean” value ([2]; oral 100 mg, N = 6) was 6.0 h. The “Tmax, median” value ([2]; oral 100 mg, N = 6) was 2.5 h, the “AUC24 hr, geometric mean” value ([2]; oral 150 mg, N = 5) was 3165 ng·h/mL and the “AUCinf, geometric mean” value ([2]; oral 150 mg, N = 5) was 3509 ng·h/mL. For the same molecule, the “Tmax, median” value ([2]; oral 150 mg, N = 5) was 2 h, the “Half-life, geometric mean” value ([2]; oral 200 mg, N = 7) was 6.5 h and the “Tmax, median” value ([2]; oral 200 mg, N = 7) was 2 h. For the same molecule, the “time to peak brain and serum concentration” value ([3]; rats, intraperitoneal administration) was 15 to 30 min, the “half-life shorter than MDMA” value ([3]; relative to MDMA) was greater than 50% and the “Magnitude of Improvement: Number of cases with CGI-I 1” value [4, 6] was 11* cases. For the same molecule, the “Magnitude of Improvement: Number of cases with CGI-I 2” value [4, 6] was 13 cases, the “Magnitude of Improvement: Number of cases with CGI-I 3” value [4, 6] was 4 cases and the “Magnitude of Improvement: Number of cases with CGI-I 4” value [4, 6] was 0 cases. For the same molecule, the “Magnitude of Improvement: Number of cases with CGI-I 5” value [4, 6] was 0 cases, the “Magnitude of Improvement: Number of cases with CGI-I 6” value [4, 6] was 0 cases and the “Magnitude of Improvement: Number of cases with CGI-I 7” value [4, 6] was 0 cases. The “number of patients with adverse events following methylone dosing” value ([4]; Cohort 2, N = 28, all ≥65 years of age) was 3 patients.
